Data as given in patent publication US20160296529A1, “AMINOTRIAZOLOPYRIDINE FOR USE IN THE TREATMENT OF INFLAMMATION, AND PHARMACEUTICAL COMPOSITIONS THEREOF” (priority 2012, published 2016).
Values joined by “and” are separate entries in the source; they are usually repeats but may differ in a detail not shown here. Identical values can stand only once. Like-named read-outs stand apart in the source and are kept apart here.

How the values were obtained:
[1] = biological target: T1, Recombinant human TYK2 catalytic domain (Homo sapiens, UniProt P29597); test: TYK2 inhibition assay; assay type: biochemical
T1 construct: amino acids 871-1187; catalog number 08-147; GST; purchased Carna Biosciences 08-147
T1 sequence (P29597 871-1187): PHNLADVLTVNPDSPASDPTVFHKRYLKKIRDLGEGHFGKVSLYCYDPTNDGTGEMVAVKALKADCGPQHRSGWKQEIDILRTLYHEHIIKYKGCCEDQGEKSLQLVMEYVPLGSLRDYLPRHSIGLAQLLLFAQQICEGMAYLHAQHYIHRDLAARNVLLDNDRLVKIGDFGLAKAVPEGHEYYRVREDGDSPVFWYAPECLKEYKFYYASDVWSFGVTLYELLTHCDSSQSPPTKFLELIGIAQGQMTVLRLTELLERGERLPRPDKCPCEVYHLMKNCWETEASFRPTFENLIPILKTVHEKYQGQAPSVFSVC
Description: Recombinant human TYK2 catalytic domain (amino acids 871-1187; catalog number 08-147) was purchased from Carna biosciences. 4 ng of TYK2 was incubated with 12.5 μg polyGT substrate (Sigma catalog number P0275) in kinase reaction buffer (25 mM Hepes pH 7.2, 50 mM NaCl, 0.5 mM EDTA, 1 mM DTT, 5 mM MnCl2, 10 mM MgCl2, 0.1% Brij-35, 0.1 μM non-radioactive ATP, 0.125 μCi ^33P-gamma-ATP (Perkin Elmer, catalog number NEG602K001MC) final concentrations) with or without 5 μL containing test compound or vehicle (DMSO, 1% final concentration), in a total volume of 25 μL, in a polypropylene 96-well plate (Greiner, V-bottom). After 90 min at 30° C., reactions were stopped by adding 25 μL/well of 150 mM phosphoric acid. […] 40 μL/well of Microscint-20 was added, the top of the plates was sealed and readout was performed using the Topcount (Perkin Elmer). Kinase activity was calculated by subtracting counts per min (cpm) obtained in the presence of a positive control inhibitor (10 μM staurosporine) from cpm obtained in the presence of vehicle. The ability of a test compound to inhibit this activity was determined as:
Percentage inhibition−((cpm determined for sample with test compound present−cpm determined for sample with positive control inhibitor) divided by (cpm determined in the presence of vehicle−cpm determined for sample with positive control inhibitor))*100. […]

[2] = biological target: T2, Recombinant human JAK2 catalytic domain (Homo sapiens, UniProt O60674); test: JAK2 Ulight-JAK1 peptide assay; assay type: biochemical
T2 construct: amino acids 808-1132; catalog number PV4210; GST; purchased Invitrogen PV4210
Description: 0.0125 mU of JAK2 was incubated with 25 nM Ulight-JAK1(tyr1023) peptide (Perkin Elmer catalog number TRF0121) in kinase reaction buffer (25 mM HEPES pH7.0, 0.01% Triton X-100, 7.5 mM MgCl2, 2 mM DTT, 7.5 μM ATP) with or without 4 μL containing test compound or vehicle (DMSO, 1% final concentration), in a total volume of 20 μL, in a white 384 Opti plate (Perkin Elmer, catalog number 6007290). After 60 min at room temperature, reactions were stopped by adding 20 μL/well of detection mixture (1× detection buffer (Perkin Elmer, catalog number CR97-100C), 0.5 nM Europium-anti-phosphotyrosine (PT66) (Perkin Elmer, catalog number AD0068), 10 mM EDTA). Readout was performed using the Envision with excitation at 320 nm and measuring emission at 615 nm (Perkin Elmer). Kinase activity was calculated by subtracting relative fluorescence units (RFU) obtained in the presence of a positive control inhibitor (10 μM staurosporine) from RFU obtained in the presence of vehicle. The ability of a test compound to inhibit this activity was determined as:
Percentage inhibition−((RFU determined for sample with test compound present−RFU determined for sample with positive control inhibitor) divided by (RFU determined in the presence of vehicle−RFU determined for sample with positive control inhibitor))*100. […]

[3] = average, read-out: IC50 (average)
[4] = individual determinations, read-out: IC50

T2 sequence (O60674 808-1132): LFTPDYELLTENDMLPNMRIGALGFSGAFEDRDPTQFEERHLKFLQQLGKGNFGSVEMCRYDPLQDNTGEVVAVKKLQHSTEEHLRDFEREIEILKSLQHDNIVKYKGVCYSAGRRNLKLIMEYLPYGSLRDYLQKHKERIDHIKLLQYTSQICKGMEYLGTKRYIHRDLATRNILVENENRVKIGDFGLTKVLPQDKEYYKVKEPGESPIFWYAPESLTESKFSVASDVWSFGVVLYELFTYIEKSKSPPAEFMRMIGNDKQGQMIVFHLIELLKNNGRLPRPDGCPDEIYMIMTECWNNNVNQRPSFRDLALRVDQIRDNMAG

Structure (SMILES): Nc1nc2cccc(-c3ccc(CN4CCS(=O)(=O)CC4)cc3)n2n1 [Formula I, 5-[4-(1,1-Dioxothiomorpholin-4-ylmethyl)-phenyl]-[1,2,4]triazolo[1,5-a]pyridin-2-ylamine]
- IC50 [1, 3]: > 3000 nM
- IC50 [1, 4]: > 3.33 µM (3×) and 1.97 µM and 2.12 µM and 3.85 µM and 3.82 µM and 2.21 µM
- IC50 [2, 3]: 397 nM
- IC50 [2, 4]: 1030 nM and 517 nM and 351 nM and 138 nM and 367 nM and 310 nM and 729 nM and 152 nM and 203 nM and 168 nM
